Source: PubChem BioAssay (NCI)
Several values for one entry are separate records, joined by “and”; a condition that tells them apart may be missing. Equal entries are not always repeated.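 Briefly, cells in 96-well plates were exposed to five compound concentrations for 48 h, and endpoints were estimated by linear interpolation. TGI: concentration producing complete growth inhibition.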

Legend:
Assay in all cases: DTP human tumour cell line panel, 48 h
SK-OV-3 ovarian = test system: SK-OV-3 ovarian
DU-145 prostate = test system: DU-145 prostate
T-47D breast = test system: T-47D breast
M14 melanoma = test system: M14 melanoma
U251 CNS = test system: U251 CNS
MDA-MB-435 = test system: MDA-MB-435
MALME-3M melanoma = test system: MALME-3M melanoma
HS 578T breast = test system: HS 578T breast
MDA-MB-231 breast = test system: MDA-MB-231 breast
SK-MEL-28 melanoma = test system: SK-MEL-28 melanoma
RXF 393 renal = test system: RXF 393 renal
IGROV1 ovarian = test system: IGROV1 ovarian
NCI-H460 lung = test system: NCI-H460 lung
OVCAR-5 ovarian = test system: OVCAR-5 ovarian

Row | SMILES | TGI (SK-OV-3 ovarian) [µM] | TGI (DU-145 prostate) [µM] | TGI (T-47D breast) [µM] | TGI (M14 melanoma) [µM] | TGI (U251 CNS) [µM] | TGI (MDA-MB-435) | TGI (MALME-3M melanoma) [µM] | TGI (HS 578T breast) [µM] | TGI (MDA-MB-231 breast) [µM] | TGI (SK-MEL-28 melanoma) [µM] | TGI (RXF 393 renal) | TGI (IGROV1 ovarian) [µM] | TGI (NCI-H460 lung) [µM] | TGI (OVCAR-5 ovarian) [µM]
1 | COC1OC2COC(c3ccccc3)OC2C(OC(=S)c2ccccc2)C1O (stereo not drawn) | 58.2 | > 100 | 59.5 | > 100 | 26.2 | 22.8 µM | > 100 | > 100 | 78.1 | > 100 | 36.9 µM | > 100 | > 100 | > 100
2 | c1ccc2c(c1)[C@@H]1O[C@@H]1[C@@]13O[C@@]21[C@H]1O[C@H]1c1ccccc13 | 52.2 | 29.2 | 57.8 | 33.6 | 28.2 | 28.7 µM | 26.3 | 28.3 | 33.6 | 41.2 | 25.7 µM | 29.3 | 74.9 | 34.8
3 | COc1ccc2c(-c3csc(-c4c[nH]c5ccccc45)n3)c[nH]c2c1 | 42.7 | > 44.8 | > 100 | 53.1 | 29.8 | > 100 µM | 32.1 | > 78.7 | > 37.6 | > 81.6 | 17.9 µM | > 58.2 | 13.7 | > 50.7
4 | O=C(Nc1ccccc1C(=O)O)C(=Cc1ccccc1O)NC(=O)c1ccccc1 | > 100 | > 100 | > 100 | > 100 | > 100 | > 100 µM | > 100 | > 100 | > 100 | > 100 | > 100 µM | > 100 | > 100 | > 100
5 | CC(=O)OC1COC(n2c(N)c(C#N)c(-c3ccccc3)c(C#N)c2=S)C(OC(C)=O)C1OC(C)=O (stereo not drawn) | > 100 | > 100 | > 100 | > 100 | > 100 | 93.6 µM and 61.2 µM | > 100 | > 100 | > 100 | > 100 | 83.1 µM and > 100 µM | > 100 | > 100 | > 100
6 | CC(C)(CO)Nc1c(O)c2c(c(O)c1Cl)C(=O)C=CC2=O | 2.91 | 3.35 | 4.18 | 2.26 | 3.11 | 2.38 µM | 3.33 | 3.41 | 3.15 | 3.32 | 3.31 µM | 2.92 | 4.28 | 3.02
7 | CC(=O)OCC12C(OC(C)=O)C[C@@H](C)C3(CC(c4ccoc4)OC3=O)C1CCC(OC(C)=O)C21CO1 (stereo partly drawn) | > 100 | > 100 | > 100 | > 100 | > 100 | > 100 µM | > 100 | > 100 | > 100 | > 100 | > 100 µM | > 100 | > 100 | > 100
8 | CCOC(=O)CCC1(C(=O)O[C@@H]2C[C@H](C)CC[C@H]2C(C)C)CCCCC1=O (stereo partly drawn) | > 100 | > 100 | > 100 | > 100 | > 100 | > 100 µM | > 100 | > 100 | > 100 | > 100 | > 100 µM | > 100 | > 100 | > 100
9 | O=C1CSC(c2cc3cc(Br)ccc3nc2Cl)N1c1ccc(F)c(Cl)c1 (stereo not drawn) | > 50 | > 50 | > 50 | > 50 |  | > 50 µM | > 50 | > 50 | > 50 | > 50 | > 50 µM | > 50 | > 50 | > 50
10 | CC1C/C(=C\c2ccc(O)c(O)c2)C(=O)/C(=C/c2ccc(O)c(O)c2)C1 (stereo not drawn) | 53.1 | 20.8 | 27.8 |  | 18.1 | 9.74 µM | 25.1 | 24.9 | 43.4 | 20.3 | 14.4 µM | 19.8 | 32.2 | 32.8
11 | O=C1CCc2c(sc3ncnc(Nc4cccc(Br)c4)c23)C1 | 20.1 | 17.3 | 6.17 | 13.9 | 9.02 | 3.82 µM | 4.85 | > 79.8 | 11.5 | 52.6 | 7.51 µM | 12.6 | 12.9 | 23.4
12 | CCCCCC(=O)OCC1(CO)C/C(=C/CC(C(C)C)C(C)C)C(=O)O1 (stereo not drawn) | > 75 | > 75 | > 75 |  | > 75 | > 75 µM | 65.6 | > 75 | > 75 | > 75 | > 75 µM | 37.2 | > 75 | > 75
13 | O=C(O)CCC(NC(=O)/C(=C/c1ccccc1)NC(=O)c1ccccc1)C(=O)O (stereo not drawn) | > 100 | > 100 | > 100 | > 100 |  | > 100 µM | > 100 | > 100 | > 100 | > 100 | > 100 µM | > 100 | > 100 | > 100
14 | Cc1cc(S(=O)(=O)Nc2n[nH]c(N)n2)c(S)cc1Cl | > 10 | > 10 | > 10 | > 10 | > 10 | > 10 µM | > 10 | > 10 | > 10 | > 10 | > 10 µM | > 10 | > 10 | > 10
15 | CCOC(=O)c1sc2[n+](c1C)C(=O)/C(=C/c1ccccc1Cl)S2 | > 69.2 | > 35.6 | 55.1 | > 43.1 | 24.4 | > 100 µM | 31.5 | > 73.3 | > 27.8 | 47.3 | > 68.1 µM | 23.3 | 6.44 | > 62
16 | COc1nc2ncc([C@@H](O)[C@H](O)CO)nc2c(=O)[nH]1 | > 100 | > 100 | > 100 | > 100 | > 100 | > 100 µM | > 100 | > 100 | > 100 | > 100 | > 100 µM | > 100 | > 100 | > 100
17 | CCOC(=O)/C=C/C(Br)=C(Br)/C=C/C(=O)OCC | 47.8 | 29.1 | > 64.5 | 30.3 | 27.9 | 18.1 µM | 17.5 | > 76.2 | 31.1 | 33.4 | 24.9 µM | 30.1 | > 100 | 34.9

Row | SMILES | TGI (SK-OV-3 ovarian) [µM] | TGI (DU-145 prostate) [µM] | TGI (T-47D breast) [µM] | TGI (M14 melanoma) [µM] | TGI (U251 CNS) [µM] | TGI (MDA-MB-435) | TGI (MALME-3M melanoma) [µM] | TGI (HS 578T breast) [µM] | TGI (MDA-MB-231 breast) [µM] | TGI (SK-MEL-28 melanoma) [µM] | TGI (RXF 393 renal) | TGI (IGROV1 ovarian) [µM] | TGI (NCI-H460 lung) [µM] | TGI (OVCAR-5 ovarian) [µM]
18 | CC(=O)c1nc(C#N)c(N)o1 | > 100 | > 100 | > 100 | > 100 | > 100 | > 100 µM | > 100 | > 100 | > 100 | > 100 | > 100 µM | > 100 | > 100 | > 100
19 | CSC(=N/N=C(\C)c1ccc(S(=O)(=O)N(C)c2ccccc2)cc1)SC | > 100 | > 100 | > 100 | > 100 | > 100 | > 100 µM | > 100 | > 100 | > 100 | > 100 | > 100 µM | > 100 | > 100 | > 100
20 | CC(NC1=NCCO1)c1ccco1 (stereo not drawn) | > 100 | > 100 | > 100 | > 100 | > 100 | > 100 µM | > 100 | > 100 | > 100 | > 100 | > 100 µM | > 100 | > 100 | > 100
21 | O=c1[nH]c(=O)c2c([nH]1)[nH]c1ccccc12 | > 100 | > 100 | > 100 | > 100 |  | > 100 µM | > 100 | > 100 | > 100 |  | > 100 µM | > 100 |  | > 100
22 | O=C(c1cccs1)N(C(=O)N1CCCCC1)c1ccccc1 | > 100 | > 100 | > 100 | > 100 | > 100 | > 100 µM | > 100 | > 100 | > 100 | > 100 | > 100 µM | > 100 |  | 
23 | C/C(=N/NC(=O)c1ccccc1Nc1ccccc1C(=O)N/N=C(\C)c1ccc(C)cc1)c1ccc(C)cc1 | > 100 | > 100 | > 100 | > 100 | > 100 | > 100 µM | > 100 | > 100 | > 100 | > 100 | > 100 µM | > 100 | > 100 | > 100
24 | N#Cc1c(NC(=S)Nc2ccccc2)sc2c1CCCC2 |  | > 100 | > 100 |  | > 100 | > 100 µM | > 100 | > 100 | > 100 | > 100 | > 100 µM | > 100 | > 100 | > 100
25 | COc1cc(C)c(S(=O)(=O)N(CCCN)OCCCN)c(C)c1C | > 100 | > 100 | > 100 | 65.2 | > 100 | > 100 µM | 42.8 | 65.2 | 80.8 | > 100 | 90 µM | > 100 | > 100 | > 100
26 | NS(=O)(=O)c1ccc(NS(=O)(=O)c2ccc(NC(=O)N(c3ccccc3)c3ccccc3)cc2)cc1 |  | > 100 | > 100 | > 100 | > 100 | 77 µM | > 100 | > 100 | > 100 | > 100 | 80.9 µM | > 100 | > 100 | > 100
27 | Nc1nn2cc(-c3ccccc3)[n+](CC(=O)c3ccccc3)c2s1 | > 100 | > 100 | 55 | 40.6 | 29.6 | > 100 µM | 27.3 | 43.6 | > 100 |  | 62.4 µM | > 100 | > 100 | 53.6
28 | CC1CC/C(=C\c2ccc(F)cc2)C2=C1C(c1ccc(F)cc1)NC(=S)N2 (stereo not drawn) | > 100 | > 100 | 70.8 | > 100 | > 100 | > 100 µM | 87.3 | > 100 | > 100 | > 100 | > 100 µM | > 100 | > 100 | 
29 | Nc1nc(Cl)cc(NCC2CC(O)(CO)C2)n1 (stereo not drawn) | > 100 | > 100 | > 100 |  | > 100 | > 100 µM | > 100 | > 100 | > 100 | > 100 | > 100 µM | > 100 | > 100 | > 100
30 | CC1=CCC(=O)[C@]2(C)C(CC(=O)O)[C@]3(C)C4=C(C)C(c5ccoc5)C[C@@H]4O[C@@H]3[C@H](O)[C@@H]12 (stereo partly drawn) | > 100 | > 100 | > 100 | > 100 | > 100 | > 100 µM | > 100 | > 100 | > 100 | > 100 |  | > 100 | > 100 | > 100
31 | COc1ccc(Cn2nc(OCc3ccccc3)c3cc([N+](=O)[O-])ccc32)cc1 | > 100 | > 100 | > 100 | > 100 |  | > 100 µM | > 100 | > 100 | > 100 | > 100 | > 100 µM | > 100 | > 100 | > 100
32 | Oc1[nH]c2ccccc2c1N=NC(=S)NCc1ccccn1 | 13.8 | 12.7 | 21.4 | 4.89 | 6.22 | 17.4 µM | 17.9 | 47.7 | 20.8 | 21.5 |  | 13.9 | 11.4 | 22.7
33 | Cc1cc(=O)oc2c(CN(CCCl)CCCl)c(O)ccc12 |  | > 100 | > 100 | > 100 | > 100 | > 100 µM | > 100 | > 100 | > 100 | > 100 | > 100 µM | > 100 | > 100 | > 100
